Measurements published in US20210155604A1, “QUINAZOLINE COMPOUND SERVING AS EGFR TRIPLE MUTATION INHIBITOR AND APPLICATIONS THEREOF” (EAST CHINA UNIVERSITY OF SCIENCE AND TECHNOLOGY, priority 2018, published 2021).

Columns and labels:
EGFR(WT) = EGFR(WT) (Homo sapiens, UniProt P00533); assay: ELISA kinase activity detection, EGFR(WT); type: biochemical; settings: ELISA-based EGFR-TK assay, ATP 5 μM; mean ± SD of at least two determinations
Experimental: (§1) Tyrosine kinase: EGFR(WT) • EGFR^T790M/L858R(LR/TM) • EGFR^T790M/L858R/[…](LR/TM/CS)
(§2) ELISA Kinase Activity Detection
Enzyme-Linked Immunosorbent Assay (ELISA) was used to detect the ability of a kinase to phosphorylate a substrate and calculate the inhibitory effect of a compound on the kinase activity. […]
(§3) The main steps of ELISA are listed as follows: the substrate Poly(Glu, Tyr) 4:1 was diluted with potassium ion-free PBS to 2.5 μg/well, incubated at 37° C. for 12-16 h to coat the ELISA plate for use. An ATP solution (final concentration of 5 μM) diluted with a reaction buffer (50 mM HEPES pH 7.4, 20 mM MgCl2, 0.1 mM MnCl2, 0.2 mM Na3VO4, 1 mM DTT) was added to each well. A compound or solvent control was added, and then a kinase was added to start the reaction at 37° C. in a shaker for 1 h. The plate was washed for three times with T-PBS, and 100 μL of antibody PY99 (diluted in T-PBS containing 5 mg/mL BSA, 1: 500) was added, and incubated in a shaker at 37° C. for 0.5 h. After washing the plate with T-PBS, 100 μL of horseradish peroxidase-labeled goat anti-mouse IgG (diluted in T-PBS containing 5 mg/mL BSA, 1: 2000) was added, and incubated in a shaker at 37° C. for 0.5 h. After washing the plate again, a developing liquid containing 0.03% H2O2, 2 mg/mL OPD (0.1 mol/L, in citrate buffer solution pH 5.4) was added at 100 μL/well, and incubated for 1-10 min at 25° C. in darkness. 50 μL/well of 2 M H2SO4 was added to quench the reaction, and read with a wavelength-tunable microplate reader (SpectraMax Plus384, Molecular Devices) at a wavelength of 490 nm. The IC50 value was obtained from the inhibition curve.

EGFR L858R/T790M (LR/TM) = EGFR L858R/T790M (LR/TM) (Homo sapiens, UniProt P00533, L858R/T790M); assay: ELISA kinase activity detection, EGFR double mutant; type: biochemical; settings: ELISA-based EGFR-TK assay, ATP 5 μM, mean ± SD
[1] = target: T1, EGFR L858R/T790M/C797S (LR/TM/CS) (Homo sapiens, UniProt P00533, C797S/L858R/T790M); assay: ELISA kinase activity detection, EGFR triple mutant; type: biochemical; settings: ELISA-based EGFR-TK assay, ATP 5 μM, mean ± SD
T1 construct: purchased BPS Bioscience
Experimental: as §1, §2
Enzyme-Linked Immunosorbent Assay (ELISA) was used to detect the ability of a kinase to phosphorylate a substrate and calculate the inhibitory effect of a compound on the kinase activity. The used kinase was EGFR L858R/T790M/C797S (purchased from BPS Bioscience).
as §3

Sequence of EGFR(WT) (P00533 25-1210): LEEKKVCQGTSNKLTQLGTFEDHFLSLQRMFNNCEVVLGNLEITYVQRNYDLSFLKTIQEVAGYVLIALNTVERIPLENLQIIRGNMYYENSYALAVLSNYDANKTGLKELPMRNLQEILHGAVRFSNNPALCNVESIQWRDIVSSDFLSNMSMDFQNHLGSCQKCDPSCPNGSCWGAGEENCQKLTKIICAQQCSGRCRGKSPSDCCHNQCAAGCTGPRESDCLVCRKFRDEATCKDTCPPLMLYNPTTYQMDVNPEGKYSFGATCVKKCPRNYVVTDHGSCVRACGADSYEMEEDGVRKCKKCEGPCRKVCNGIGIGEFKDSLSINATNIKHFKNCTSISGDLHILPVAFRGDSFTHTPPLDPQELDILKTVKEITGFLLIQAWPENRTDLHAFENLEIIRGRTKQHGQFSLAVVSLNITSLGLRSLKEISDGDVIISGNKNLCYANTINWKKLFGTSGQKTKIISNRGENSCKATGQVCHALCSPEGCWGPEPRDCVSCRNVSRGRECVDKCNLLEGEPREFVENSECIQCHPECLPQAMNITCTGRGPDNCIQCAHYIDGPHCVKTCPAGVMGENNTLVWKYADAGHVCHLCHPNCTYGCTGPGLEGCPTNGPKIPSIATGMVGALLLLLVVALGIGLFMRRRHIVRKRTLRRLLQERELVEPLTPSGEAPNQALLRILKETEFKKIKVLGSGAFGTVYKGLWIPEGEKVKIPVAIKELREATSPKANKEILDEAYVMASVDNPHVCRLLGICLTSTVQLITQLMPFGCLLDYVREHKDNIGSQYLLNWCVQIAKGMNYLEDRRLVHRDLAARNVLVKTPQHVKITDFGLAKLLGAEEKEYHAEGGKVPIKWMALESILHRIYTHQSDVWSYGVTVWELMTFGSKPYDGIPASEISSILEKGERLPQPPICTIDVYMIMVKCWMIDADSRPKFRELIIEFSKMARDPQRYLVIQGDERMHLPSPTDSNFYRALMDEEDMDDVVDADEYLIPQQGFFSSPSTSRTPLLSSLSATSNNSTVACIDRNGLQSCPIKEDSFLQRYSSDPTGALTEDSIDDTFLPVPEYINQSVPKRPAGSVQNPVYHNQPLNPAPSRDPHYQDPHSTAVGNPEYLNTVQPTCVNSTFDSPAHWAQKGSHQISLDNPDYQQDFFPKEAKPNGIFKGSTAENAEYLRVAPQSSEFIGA
T1 sequence (P00533 25-1210 T790M/C797S/L858R): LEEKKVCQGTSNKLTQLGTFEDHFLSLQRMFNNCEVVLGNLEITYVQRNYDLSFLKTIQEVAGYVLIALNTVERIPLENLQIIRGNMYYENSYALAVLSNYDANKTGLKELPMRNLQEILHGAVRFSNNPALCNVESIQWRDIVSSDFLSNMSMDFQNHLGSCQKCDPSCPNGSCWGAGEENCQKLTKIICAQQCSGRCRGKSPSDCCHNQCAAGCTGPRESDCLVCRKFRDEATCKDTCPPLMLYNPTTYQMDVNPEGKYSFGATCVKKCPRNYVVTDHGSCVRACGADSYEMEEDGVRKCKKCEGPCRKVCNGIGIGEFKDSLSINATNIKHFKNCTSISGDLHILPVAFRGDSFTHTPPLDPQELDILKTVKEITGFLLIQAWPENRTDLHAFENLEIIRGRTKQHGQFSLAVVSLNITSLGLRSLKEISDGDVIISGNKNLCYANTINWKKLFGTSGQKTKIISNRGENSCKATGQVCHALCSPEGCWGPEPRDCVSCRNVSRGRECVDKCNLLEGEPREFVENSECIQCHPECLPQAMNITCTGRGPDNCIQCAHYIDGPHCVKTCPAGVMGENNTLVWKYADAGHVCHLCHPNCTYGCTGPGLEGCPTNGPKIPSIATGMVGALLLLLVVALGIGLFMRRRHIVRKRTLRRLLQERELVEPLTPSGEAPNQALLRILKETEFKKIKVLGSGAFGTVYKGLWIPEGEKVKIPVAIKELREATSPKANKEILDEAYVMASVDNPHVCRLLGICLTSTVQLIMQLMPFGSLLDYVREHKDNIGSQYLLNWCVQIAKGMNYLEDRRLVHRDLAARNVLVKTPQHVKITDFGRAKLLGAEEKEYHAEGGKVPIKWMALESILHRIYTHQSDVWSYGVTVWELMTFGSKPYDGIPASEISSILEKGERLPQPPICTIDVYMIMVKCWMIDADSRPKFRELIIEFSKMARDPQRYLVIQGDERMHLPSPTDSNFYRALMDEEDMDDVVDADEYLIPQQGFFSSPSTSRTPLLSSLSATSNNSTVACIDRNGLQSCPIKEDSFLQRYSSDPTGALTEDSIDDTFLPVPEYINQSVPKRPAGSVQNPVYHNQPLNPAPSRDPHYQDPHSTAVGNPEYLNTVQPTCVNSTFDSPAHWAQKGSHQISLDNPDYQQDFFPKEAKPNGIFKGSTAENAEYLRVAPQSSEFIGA
Sequence of EGFR L858R/T790M (LR/TM) (P00533 25-1210 T790M/L858R): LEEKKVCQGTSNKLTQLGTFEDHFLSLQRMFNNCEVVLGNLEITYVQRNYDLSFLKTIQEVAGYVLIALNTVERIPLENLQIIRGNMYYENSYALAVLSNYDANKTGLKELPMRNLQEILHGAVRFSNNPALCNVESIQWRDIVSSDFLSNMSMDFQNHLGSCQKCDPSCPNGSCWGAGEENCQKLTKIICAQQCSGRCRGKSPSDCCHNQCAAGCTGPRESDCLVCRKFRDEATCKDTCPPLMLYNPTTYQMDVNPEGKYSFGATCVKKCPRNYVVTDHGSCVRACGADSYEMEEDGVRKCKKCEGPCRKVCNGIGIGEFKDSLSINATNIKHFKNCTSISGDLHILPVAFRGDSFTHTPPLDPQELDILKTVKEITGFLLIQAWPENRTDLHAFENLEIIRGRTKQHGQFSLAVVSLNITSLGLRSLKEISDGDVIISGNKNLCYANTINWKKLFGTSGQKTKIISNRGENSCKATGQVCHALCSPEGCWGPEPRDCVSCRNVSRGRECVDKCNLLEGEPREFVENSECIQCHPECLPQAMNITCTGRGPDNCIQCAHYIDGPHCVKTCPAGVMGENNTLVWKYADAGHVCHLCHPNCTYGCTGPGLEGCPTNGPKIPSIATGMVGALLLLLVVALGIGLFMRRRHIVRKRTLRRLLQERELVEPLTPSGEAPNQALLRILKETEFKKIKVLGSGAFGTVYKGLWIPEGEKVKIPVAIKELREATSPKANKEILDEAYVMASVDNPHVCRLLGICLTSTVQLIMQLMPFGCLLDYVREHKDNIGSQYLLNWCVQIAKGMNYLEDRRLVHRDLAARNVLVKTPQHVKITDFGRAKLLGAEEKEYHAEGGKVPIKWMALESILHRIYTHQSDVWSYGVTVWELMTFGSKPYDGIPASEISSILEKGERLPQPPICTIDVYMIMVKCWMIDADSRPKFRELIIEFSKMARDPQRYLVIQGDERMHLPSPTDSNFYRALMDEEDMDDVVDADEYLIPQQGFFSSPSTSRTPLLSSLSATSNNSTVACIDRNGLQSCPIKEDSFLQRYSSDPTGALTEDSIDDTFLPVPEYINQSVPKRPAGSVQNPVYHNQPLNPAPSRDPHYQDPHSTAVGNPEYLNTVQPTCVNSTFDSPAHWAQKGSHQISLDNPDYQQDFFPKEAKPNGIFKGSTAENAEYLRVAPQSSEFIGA

IC50 (EGFR(WT)): 2710 ± 80.2 nM | IC50 (EGFR L858R/T790M (LR/TM)): > 10000 nM | IC50 [1]: 9510 ± 526 nM | melting point: 170.7 to 172.4 °C
Compound: CN1CCC(COc2ccc3c(Nc4ccccc4P(C)(C)=O)ncnc3c2)CC1 [Example 14]
